“And” between values parts separate entries of the source, which are not always exact repeats. Equal values may be shown once.
How the values were obtained:
[1] = system: CFU-S population in the bone marrow; test: Spleen colony formation (CFU-S) by bone marrow cells of peptide-treated intact donor mice; type: in vivo, (CBA×C57 B1) F1 mice; settings: for Colony count CFU-8 - S per 10^5 cells M ± M: control 11.2 ± 0.4; for Colony count CFU-8 - S per 10^5 cells M ± m: control 9.9 ± 0.7
Description: The effect of tested substances on intact bone marrow was studied in vivo. […] Two days after administration of preparation, the mice were killed. Bone marrow suspension was prepared and injected intravenously to lethally irradiated mice. The colony forming activity was evaluated at day 8. Test animals were (CBA×C57 B1) F1 mice (30 mice per trial, average from 3 tests).

Anti-OVA antibody titers = test: Adjuvant activity, anti-OVA antibody titers by ELISA (Example 8); type: in vivo, Balb/c mice; settings: for Anti-protein antibody titer (pooled sera) / Stimulation index / Anti-protein antibody titer (for individual sera): Table 7
Description: Adjuvant activity was tested on 11 groups of Balb/c mice (obtained from Stolbovaya Breeding Station). Each group consisted of 7 animals. Three immunizations were performed as follows:
• Group 1—ovalbumin 25 micrograms per animal (Mouse Nos. 1 to 7) • Group 2—ovalbumin 25 micrograms per animal+CFA (Complete Freund's adjuvant) (Mouse Nos. 8 to 14) • Group 3—ovalbumin 25 micrograms per animal+adjuvant of compound 33a 100 micrograms per animal (Mouse Nos. 15 to 21) • Group 4—ovalbumin 25 micrograms per animal+adjuvant of compound 33a 10 micrograms per animal (Mouse Nos. […]) • Group 5—ovalbumin 25 micrograms per animal+adjuvant of compound 33a 1 microgram per animal (Mouse Nos. […]) • Group 6—ovalbumin 25 micrograms per animal+adjuvant of compound 33b 100 micrograms per animal (No. 36 to 42) • Group 7—ovalbumin 25 micrograms per animal+adjuvant of compound 33b 10 micrograms per animal (Mouse Nos. 43 to 49) • Group 8—ovalbumin 25 micrograms per animal+adjuvant of compound 33b 1 microgram per animal (Mouse Nos. 50 to 56) • Group 9—ovalbumin 25 micrograms per animal+adjuvant of compound 17 100 micrograms per animal (Mouse Nos. 57 to 63) • Group 10—ovalbumin 25 micrograms per animal+adjuvant of compound 1710 micrograms per animal (Mouse Nos. 64 to 70) • Group 11—ovalbumin 25 micrograms per animal+adjuvant of compound 171 microgram per animal (Mouse Nos. 71 to 77) Second Immunization:
The same set 14 days after first immunization by injection of 12.5 micrograms of ovalbumin/mouse to mouse nos. 1 to 77.
The same set 28 days after first immunization by injection of 12.5 micrograms of ovalbumin/mouse to mouse nos. 1 to 77.
On day 35 after first immunization, blood samples from each mouse were collected.
OVA (10 micrograms/ml) solution in 0.05 M sodium carbonate buffer (pH 9.5) was added to plate wells, 0.1 ml per well and incubated at 4° C. for 16 hours. The OVA solution was then removed and the plate was washed 4 times with PBS containing 0.05% Tween-20. Such washing was performed after each incubation stage. Serial twofold dilutions of sera (starting from 1:100 or 1:1000) were added to the wells, 0.1 ml per well and incubated at 37° C. for 1 hour followed by incubation (1 hour, 37° C.) with HRP-conjugated goat anti-mouse IgG antibodies (0.1 ml, 1 mg/ml in PBS) and then with a 0.1 mL substrate solution −0.05% H2O2 and 0.05% o-phenylene diamine in 0.05M sodium citrate buffer with a pH of 4.5. The reaction was stopped by adding 100 μl of 12.5% H2SO4. Absorbance was measured at a wavelength of 492 nm using a Multiscan Plus MKII (Flow Laboratories, Great Britain). Significant anti-protein antibody titer (for individual sera) was assessed as the serum dilution produced an absorbance value of more than 0.1 ODU and the minimum exceeds three times the control level. The antibody titer was presented and −log of dilution (FIGS. 2 and 3). The stimulation index for pooled sera was calculated by dividing the test pooled sera dilution producing OD=1 by the dilution of pooled sera from mice immunized without the adjuvant, producing OD=1. The results of the adjuvant activities of cyclo-L-Ala-L-Glu-(L-Trp-OH) (Compound 17), cyclo-L-Lys(N-acetyl-Glycosamine-N-acetyl-muramil)-L-Glu-(L-Trp-OH) (Compound 33a) and cyclo-D-Lys(N-acetyl-Glycosamine-N-acetyl-muramil)-D-Glu-(L-Trp-OH) (Compound 33b) are shown in Table 7 and the adjuvant activities of cyclo [L-Lys(Palmitoyil)-L-Glu(D-Trp-OH)] (Compound 26a) and cyclo [D-Lys(Palmitoyil)-D-Glu(D-Trp-OH)] (Compound 26b) are shown in Table 8 as well as in FIG. 4 which includes the results of the adjuvant activities of cyclo-L-Lys-L-Glu-(L-Trp-OH) (compound 19). It is noted that the peptides of compounds 26a and 26b are soluble in 0.1% NH4OH at a concentration of 1 mg per 1 to 2 ml.

[2] = Table 3, 0.2 microgram per mouse per os
[3] = 100 μg per animal, no adjuvant 4.5
[4] = 100 μg per animal, no adjuvant = 1
[5] = OVA + adjuvant 1 μg per animal, −log of dilution
[6] = OVA + adjuvant 10 μg per animal, −log of dilution
[7] = OVA + adjuvant 100 μg per animal, titer as −log of dilution, one value per mouse
[8] = Table 2, donor treated i/p, colonies day 8
[9] = Table 3, 0.2 microgram per mouse i/p
[10] = Table 3, 2.0 microgram per mouse per os
[11] = Table 3, 20.0 microgram per mouse per os
[12] = Table 3, 200.0 microgram per mouse per os

COC(=O)[C@@H](Cc1c[nH]c2ccccc12)NC(=O)CC[C@H]1NC(=O)[C@@H](C)NC1=O [Compound 1, Cyclo-D-Ala-D-Glu-(D-Trp-OMe)]
% suppression ([1]; Table 2, donor treated per os): 40%
Colony count CFU-8 - S per 10^5 cells M ± M ([1]; Table 2, donor treated per os): 7.4 ± 0.4 per 10^5 cells
% suppression ([1]; Table 2, donor treated s/c): 47%
Colony count CFU-8 - S per 10^5 cells M ± M ([1]; Table 2, donor treated s/c): 6.8 ± 0.4 per 10^5 cells
% suppression [1, 2]: 42%
Colony count CFU-8 - S per 10^5 cells M ± m [1, 2]: 6.5 ± 0.5 per 10^5 cells

COC(=O)[C@@H](Cc1c[nH]c2ccccc12)NC(=O)C[C@H]1NC(=O)[C@@H](C)NC1=O [Compound 12, Cyclo-D-Ala-D-Asp-(D-Trp-OMe)]
% suppression [1, 2]: 28%
Colony count CFU-8 - S per 10^5 cells M ± m [1, 2]: 8.4 ± 0.6 per 10^5 cells

C[C@H]1NC(=O)[C@@H](CC(=O)N[C@H](Cc2c[nH]c3ccccc23)C(=O)O)NC1=O [Compound 13, Cyclo-D-Ala-D-Asp-(D-Trp-OH)]
% suppression ([1]; Table 2, donor treated per os): 26.5%
Colony count CFU-8 - S per 10^5 cells M ± M ([1]; Table 2, donor treated per os): 9.0 ± 0.2 per 10^5 cells

NCCCCC1NC(=O)C(CCC(=O)NC(Cc2c[nH]c3ccccc23)C(=O)O)NC1=O [Compound 19, cyclo-L-Lys-L-Glu-(L-Trp-OH)]
adjuvant activity (FIG. 4), doses at which active (Anti-OVA antibody titers): active at 100 μg/kg

CC(=O)N[C@H]1[C@H](O[C@H]2[C@H](O[C@H](C)C(=O)NCCCC[C@@H]3NC(=O)[C@H](CCC(=O)N[C@@H](Cc4c[nH]c5ccccc45)C(=O)O)NC3=O)[C@@H](NC(C)=O)C(O)O[C@@H]2CO)O[C@H](CO)[C@@H](O)[C@@H]1O (stereo partly drawn) [Compound 33a, cyclo-L-Lys(N-acetyl-Glycosamine-N-acetyl-muramil)-L-Glu-(L-Trp-OH)]
adjuvant activity (FIG. 4), doses at which active (Anti-OVA antibody titers): active at 100 μg/kg
Anti-protein antibody titer (pooled sera) (Anti-OVA antibody titers; 1 μg per animal): 4.8
Stimulation index (Anti-OVA antibody titers; 1 μg per animal): 2.9
Anti-protein antibody titer (pooled sera) (Anti-OVA antibody titers; 10 μg per animal): 5.1
Stimulation index (Anti-OVA antibody titers; 10 μg per animal): 3.5
Anti-protein antibody titer (pooled sera) (Anti-OVA antibody titers; [3]): 5.5
Stimulation index (Anti-OVA antibody titers; [4]): 6.8
Anti-protein antibody titer (for individual sera) (Anti-OVA antibody titers; [5]): 5.1 (2×) and 4.2 and 5.4 (3×) and 4.1
Anti-protein antibody titer (for individual sera) (Anti-OVA antibody titers; [6]): 4.4 and 5.7 (4×) and 4.7 and 5.4
Anti-protein antibody titer (for individual sera) (Anti-OVA antibody titers; [7]): 4.8 (2×) and 5.4 and 5.1 (2×) and 6.4 and 5.7

CC(=O)N[C@H]1[C@H](O[C@H]2[C@H](O[C@H](C)C(=O)NCCCC[C@H]3NC(=O)[C@@H](CCC(=O)N[C@@H](Cc4c[nH]c5ccccc45)C(=O)O)NC3=O)[C@@H](NC(C)=O)C(O)O[C@@H]2CO)O[C@H](CO)[C@@H](O)[C@@H]1O (stereo partly drawn) [Compound 33b, cyclo-D-Lys(N-acetyl-Glycosamine-N-acetyl-muramil)-D-Glu-(L-Trp-OH)]
adjuvant activity (FIG. 4), doses at which active (Anti-OVA antibody titers): not an active compound
Anti-protein antibody titer (pooled sera) (Anti-OVA antibody titers; 1 μg per animal): 5.1
Stimulation index (Anti-OVA antibody titers; 1 μg per animal): 3.5
Anti-protein antibody titer (pooled sera) (Anti-OVA antibody titers; 10 μg per animal): 5.4
Stimulation index (Anti-OVA antibody titers; 10 μg per animal): 4.1
Anti-protein antibody titer (pooled sera) (Anti-OVA antibody titers; [3]): 4.8
Stimulation index (Anti-OVA antibody titers; [4]): 2.9
Anti-protein antibody titer (for individual sera) (Anti-OVA antibody titers; [5]): 5.2 and 4.8 (4×) and 4.5 and 5.1
Anti-protein antibody titer (for individual sera) (Anti-OVA antibody titers; [6]): 4.8 and 4.5 and 5.2 and 5.1 and 5.4 (2×) and 4.3
Anti-protein antibody titer (for individual sera) (Anti-OVA antibody titers; [7]): 4.8 and 5.4 (3×) and 4.2 and 5.1 (2×)

CC1NC(=O)C(CC(=O)NC(Cc2c[nH]c3ccccc23)C(=O)[O-])NC1=O.[Na+] (centres unmarked) [cyclo-DAla-DAsp-(DTrp-ONa)]
% suppression [1, 2]: 55%
Colony count CFU-8 - S per 10^5 cells M ± m [1, 2]: 6.8 ± 0.8 per 10^5 cells

C[C@H]1NC(=O)[C@@H](CCC(=O)N[C@H](Cc2c[nH]c3ccccc23)C(=O)[O-])NC1=O.[Na+] [cyclo-DAla-DGlu-(DTrp-ONa)]
% suppression ([1]; Table 2, donor treated i/p): 70%
Colony count CFU-8 - S per 10^5 cells M ± M [1, 8]: 5.0 ± 0.3 per 10^5 cells
% suppression ([1]; Table 2, donor treated per os): 58%
Colony count CFU-8 - S per 10^5 cells M ± M ([1]; Table 2, donor treated per os): 6.0 ± 0.7 per 10^5 cells
% suppression [1, 2]: 59%
Colony count CFU-8 - S per 10^5 cells M ± m [1, 2]: 5.3 ± 0.6 per 10^5 cells

O=C(CC[C@H]1NC(=O)[C@@H](Cc2ccccc2)NC1=O)N[C@H](Cc1c[nH]c2ccccc12)C(=O)[O-].[Na+] [cyclo-DPhe-DGlu-(DTrp-ONa)]
% suppression ([1]; Table 2, donor treated per os): 28%
Colony count CFU-8 - S per 10^5 cells M ± M ([1]; Table 2, donor treated per os): 8.1 ± 0.4 per 10^5 cells
% suppression [1, 2]: 28%
Colony count CFU-8 - S per 10^5 cells M ± m [1, 2]: 8.1 ± 0.4 per 10^5 cells

O=C(CCC1NC(=O)C(Cc2ccc(O)cc2)NC1=O)NC(Cc1c[nH]c2ccccc12)C(=O)O (centres unmarked) [cyclo-DTyr-DGlu-(DTrp-OH)]
% suppression ([1]; Table 2, donor treated per os): 44%
Colony count CFU-8 - S per 10^5 cells M ± M ([1]; Table 2, donor treated per os): 6.3 ± 0.9 per 10^5 cells

O=C(CCC1NC(=O)C(Cc2ccc(O)cc2)NC1=O)NC(Cc1c[nH]c2ccccc12)C(=O)[O-].[Na+] (centres unmarked) [cyclo-DTyr-DGlu-(DTrp-ONa)]
% suppression [1, 2]: 44%
Colony count CFU-8 - S per 10^5 cells M ± m [1, 2]: 6.3 ± 0.9 per 10^5 cells

CC1NC(=O)C(CCC(=O)NC(Cc2c[nH]c3ccccc23)C(=O)[O-])NC1=O.[Na+] (centres unmarked) [cyclo-LAla-LGlu-(DTrp-ONa)]
% suppression ([1]; Table 2, donor treated i/p): 20%
Colony count CFU-8 - S per 10^5 cells M ± M [1, 8]: 8.8 ± 0.2 per 10^5 cells

γDGlu-DTrp [Thymodepressin, reference compound]
% suppression ([1]; Table 2, donor treated i/p): 55%
Colony count CFU-8 - S per 10^5 cells M ± M [1, 8]: 6.3 ± 0.6 per 10^5 cells
% suppression [1, 9]: 51%
Colony count CFU-8 - S per 10^5 cells M ± m [1, 9]: 5.7 ± 0.4 per 10^5 cells
% suppression [1, 2]: 0%
Colony count CFU-8 - S per 10^5 cells M ± m [1, 2]: 10.2 ± 0.3 per 10^5 cells
% suppression [1, 10]: 33%
Colony count CFU-8 - S per 10^5 cells M ± m [1, 10]: 8.0 ± 0.5 per 10^5 cells
% suppression [1, 11]: 41%
Colony count CFU-8 - S per 10^5 cells M ± m [1, 11]: 6.4 ± 0.5 per 10^5 cells
% suppression [1, 12]: 52%
Colony count CFU-8 - S per 10^5 cells M ± m [1, 12]: 5.1 ± 0.2 per 10^5 cells
effect on CFU-S population in the bone marrow of intact mice ([1]; text statement on Table 2): decreased the CFU-S population in the bone marrow
